Read-outs that look alike come from different tables or passages of the source.
Legend:
[1] = test system: glutamate-induced 45Ca2+ uptake into synaptosomes of rat brain cortex; assay: Effect on glutamate-induced 45Ca2+ uptake into synaptosomes of rat brain cortex; assay type: biochemical, Wistar rats; settings: for Percentage 45Ca2+ of Control (Control – 100%): 200 μM glutamate, 5 min, 37 °C
[2] = assay type: physicochemical

Row | SMILES | Percentage 45Ca2+ of Control (Control – 100%) ([1]; compound 0.1 μM) | Percentage 45Ca2+ of Control (Control – 100%) ([1]; compound 0.5 μM) | Percentage 45Ca2+ of Control (Control – 100%) ([1]; compound 1 μM) | Percentage 45Ca2+ of Control (Control – 100%) ([1]; compound 5 μM) | Percentage 45Ca2+ of Control (Control – 100%) ([1]; compound 10 μM) | Percentage 45Ca2+ of Control (Control – 100%) ([1]; compound 50 μM) | Percentage 45Ca2+ of Control (Control – 100%) ([1]; compound 100 μM) | mole fraction solubility (x) ([2]; 1-octanol, 293.15 K) | A, parameter of the correlation equation lnx=A-B/T ([2]; 1-octanol, 293.15–313.15 K) | B, parameter of the correlation equation lnx=A-B/T ([2]; 1-octanol, 293.15–313.15 K) | mole fraction solubility (x) ([2]; 1-octanol, 298.15 K) | ΔGsol0, standard molar dissolution Gibbs energy ([2]; 1-octanol, 298.15 K) | ΔHsol0, standard molar dissolution enthalpy ([2]; 1-octanol, 298.15 K) | ΔSsol0, standard molar dissolution entropy ([2]; 1-octanol, 298.15 K) | mole fraction solubility (x) ([2]; 1-octanol, 303.15 K) | mole fraction solubility (x) ([2]; 1-octanol, 308.15 K) | mole fraction solubility (x) ([2]; 1-octanol, 313.15 K) | mole fraction solubility (x) ([2]; Buffer pH 7.4, 293.15 K) | A, parameter of the correlation equation lnx=A-B/T ([2]; Buffer pH 7.4, 293.15–313.15 K) | B, parameter of the correlation equation lnx=A-B/T ([2]; Buffer pH 7.4, 293.15–313.15 K) | also measured
1 | CN1CCc2c(c3ccccc3n2CCc2n[nH]c(=S)n2C)C1 [Compound I, 4-Methyl-5-[2-(2-methyl-1,2,3,4-tetrahydropyrido[4,3-b]indol-5-yl)ethyl]-2,4-dihydro[1,2,4]triazole-3-thione] | 90.5 ± 5.1% | 94.8 ± 3.0% | 94.5 ± 11.8% | 80.0 ± 3.0% | 69.9 ± 4.4% | 90.0 ± 6.1% | 104.2 ± 12.8% | 2.16 x · 10^4 | 5.83 ± 0.11 | 4179 ± 45 | 2.74 x · 10^4 | 20.3 kJ/mol | 34.7 kJ/mol | 69.9 J/mol⋅K | 3.48 x · 10^4 | 4.28 x · 10^4 | 5.40 x · 10^4 | 1.69 x · 10^6 | −7.76 ± 0.04 | 1649 ± 12 | effect on glutamate-induced calcium ion uptake, in words ([1]; concentration of 0.1–1 μM): did not affect; effect on glutamate-induced calcium ion uptake, in words ([1]; concentrations of 5–50 μM): inhibited calcium ion uptake; mole fraction solubility (x) ([2]; Buffer pH 7.4, 298.15 K): 1.86 x · 10^6; ΔGsol0, standard molar dissolution Gibbs energy ([2]; Buffer pH 7.4, 298.15 K): 32.7 kJ/mol; ΔHsol0, standard molar dissolution enthalpy ([2]; Buffer pH 7.4, 298.15 K): 13.7 kJ/mol; ΔSsol0, standard molar dissolution entropy ([2]; Buffer pH 7.4, 298.15 K): -63.73 J/mol⋅K; mole fraction solubility (x) ([2]; Buffer pH 7.4, 303.15 K): 2.04 x · 10^6; mole fraction solubility (x) ([2]; Buffer pH 7.4, 308.15 K): 2.23 x · 10^6; mole fraction solubility (x) ([2]; Buffer pH 7.4, 313.15 K): 2.42 x · 10^6; mole fraction solubility (x) ([2]; Hexane, 293.15 K): 7.96 x · 10^6; A, parameter of the correlation equation lnx=A-B/T ([2]; Hexane, 293.15–313.15 K): −1.25 ± 0.18; B, parameter of the correlation equation lnx=A-B/T ([2]; Hexane, 293.15–313.15 K): 3073 ± 39; mole fraction solubility (x) ([2]; Hexane, 298.15 K): 9.41 x · 10^6; ΔGsol0, standard molar dissolution Gibbs energy ([2]; Hexane, 298.15 K): 28.6 kJ/mol; ΔHsol0, standard molar dissolution enthalpy ([2]; Hexane, 298.15 K): 25.6 kJ/mol; ΔSsol0, standard molar dissolution entropy ([2]; Hexane, 298.15 K): -6.7 J/mol⋅K; mole fraction solubility (x) ([2]; Hexane, 303.15 K): 11.41 x · 10^6; mole fraction solubility (x) ([2]; Hexane, 308.15 K): 13.26 x · 10^6; mole fraction solubility (x) ([2]; Hexane, 313.15 K): 15.50 x · 10^6; increase of solubility in hexane over buffer solution ([2]; standard temperature): 5 times
2 | Cc1ccc2c(c1)c1c(n2CCc2n[nH]c(=S)n2C)CCN(C)C1 [Compound II, 5-[2-(2,8-Dimethyl-1,2,3,4-tetrahydropyrido[4,3-b]indol-5-yl)ethyl]-4-methyl-2,4-dihydro [1,2,4] triazole-3-thione] | 85.5 ± 3.9% | 102.6 ± 3.6% | 93.6 ± 3.6% | 113.1 ± 7.6% | 109.7 ± 7.5% | 118.6 ± 2.7% | 127.1 ± 17.1% | 0.89 x · 10^4 | 3.95 ± 0.23 | 3889 ± 69 | 1.13 x · 10^4 | 22.5 kJ/mol | 32.3 kJ/mol | 32.9 J/mol⋅K | 1.39 x · 10^4 | 1.68 x · 10^4 | 2.11 x · 10^4 | 1.64 x · 10^6 | −2.90 ± 0.22 | 3054 ± 67 | Percentage 45Ca2+ of Control (Control – 100%) ([1]; compound 0.01 μM): 84.7 ± 1.2%; inhibition of glutamate-induced uptake of calcium ions ([1]; concentration of 0.01–0.1 μM): ~15%; overall inhibiting activity on calcium ion uptake, in words ([1]; whole concentration range 0.01–100 μM): potentiates the uptake at high concentrations; mole fraction solubility (x) ([2]; Buffer pH 7.4, 298.15 K): 1.96 x · 10^6; ΔGsol0, standard molar dissolution Gibbs energy ([2]; Buffer pH 7.4, 298.15 K): 32.6 kJ/mol; ΔHsol0, standard molar dissolution enthalpy ([2]; Buffer pH 7.4, 298.15 K): 25.4 kJ/mol; ΔSsol0, standard molar dissolution entropy ([2]; Buffer pH 7.4, 298.15 K): -24.2 J/mol⋅K; mole fraction solubility (x) ([2]; Buffer pH 7.4, 303.15 K): 2.27 x · 10^6; mole fraction solubility (x) ([2]; Buffer pH 7.4, 308.15 K): 2.70 x · 10^6; mole fraction solubility (x) ([2]; Buffer pH 7.4, 313.15 K): 3.21 x · 10^6; mole fraction solubility (x) ([2]; Hexane, 293.15 K): 1.42 x · 10^5; A, parameter of the correlation equation lnx=A-B/T ([2]; Hexane, 293.15–313.15 K): −1.39 ± 0.17; B, parameter of the correlation equation lnx=A-B/T ([2]; Hexane, 293.15–313.15 K): 2989 ± 49; mole fraction solubility (x) ([2]; Hexane, 298.15 K): 1.70 x · 10^5; ΔGsol0, standard molar dissolution Gibbs energy ([2]; Hexane, 298.15 K): 27.2 kJ/mol; ΔHsol0, standard molar dissolution enthalpy ([2]; Hexane, 298.15 K): 24.9 kJ/mol; ΔSsol0, standard molar dissolution entropy ([2]; Hexane, 298.15 K): -7.7 J/mol⋅K; mole fraction solubility (x) ([2]; Hexane, 303.15 K): 2.02 x · 10^5; mole fraction solubility (x) ([2]; Hexane, 308.15 K): 2.35 x · 10^5; mole fraction solubility (x) ([2]; Hexane, 313.15 K): 2.72 x · 10^5
